Results as given in ChEMBL document CHEMBL2396653, “Synthesis and antimycobacterial evaluation of N-substituted 5-chloropyrazine-2-carboxamides” (Bioorg Med Chem Lett, 2013).
Converted amounts (≈) assume the structure as drawn.

Legend:
[1] = tested on: Mycobacterium tuberculosis variant bovis; assay: Antimycobacterial activity against pyrazinamide-resistant Mycobacterium bovis ATCC 27289 assessed as growth inhibition after 24 hrs to 2 weeks by microbroth dilution method; type: functional
[2] = tested on: Mycobacterium tuberculosis variant bovis; assay: Antimycobacterial activity against pyrazinamide-resistant Mycobacterium bovis ATCC 35720 assessed as growth inhibition after 24 hrs to 2 weeks by microbroth dilution method; type: functional

`NC(=O)c1cnc(Cl)cn1` showed an MIC [1] of 8 µg/mL (≈ 50.8 µM) and an MIC [2] of 8 µg/mL (≈ 50.8 µM).
